Laboratory results reported in US20240139188A1, “Arylamide Compounds For Treatment And Prevention Of Fungal Infections” (priority 2022, published 2024).
In brackets after ≈: the same amount, converted by molar mass. Like-named read-outs stand apart in the source and are kept apart here.

Key:
A. fumigatus [1] = experiment: MIC/MEC, CLSI M38-A2; type: cell-based, Aspergillus fumigatus; details: Aspergillus fumigatus
A. fumigatus biofilms = experiment: Biofilm assay (XTT); details: Aspergillus fumigatus, read-out: inhibition of biofilm formation
Description: Biofilm assay: To test the susceptibility of pre-formed A. fumigatus biofilms to
VOR, CAS and to the combination of CAS+BRI and VOR+BRI, a suspension containing 10^6 conidia per mL of the wild-type strain (Δku80 pyrG^+) was prepared in liquid MM and 100 μL of it was inoculated in each well of a 96-well plate. After 24 hours of incubation at 37° C., 50 μL of fresh MM containing CAS, VOR or the combination of VOR and CAS with BRI was added to the biofilm to reach the final concentration as indicated and incubated for a further 12 hours at 37° C. Wells containing untreated conidia were used as a positive control. After, the metabolic activity of the cells was evaluated by adding 50 μL of an aqueous XTT solution (1 mg/mL of XTT and 125 μM of menadione) to each well. The plate was incubated for additional 1 hour at 37° C., centrifuged (2000 rpm, 5 minutes) and 100 μL of the supernatant was transferred to a flat-bottomed 96-well plate. The absorbance was measured at 450 nm on a plate reader (Synergy HTX Multi-Mode Reader- BioTek Instruments). The XTT assay's were performed in six replicates.

[2] = system: A. fumigatus clinical isolates; experiment: Growth inhibition of clinical isolates by CAS, VOR, BRI and combinations
C. albicans = experiment: MIC for yeasts, CLSI M27-A3; type: cell-based, Candida albicans
A. fumigatus [3] = experiment: Fungal burden, chemotherapeutic murine model of IPA; type: in vivo, BALB/c mice; details: BRI 50 mg/kg, 3 days post-infection, vs non-treated mice
Description: Fungal burden: Inbred female mice (BALB/c strain; body weight, 20-22 g) were housed in vented cages containing five animals. Mice were immunosuppressed with cyclophosphamide (150 mg per kg of body weight), which was administered intraperitoneally on days −4, −1 and 2 prior to and post infection (infection day is “day 0”). Hydrocortisonacetate (200 mg/kg body weight) was injected subcutaneously on day −3. Mice (5 mice per group) were anesthetized by halothane inhalation and infected by intranasal instillation of 20 μL of 1.0×10^6 conidia of A. fumigatus Δku80 pyrG^+ (wild-type) (the viability of the administered inoculum was determined by incubating a serial dilution of the conidia on MM medium, at 37° C.). As a negative control, a group of 5 mice received PBS only. […]
DNA quantity and quality were assessed using a NanoDrop 2000 spectrophotometer (Thermo Scientific). Quantitative real-time PCRs were performed using 400 ng of total DNA from each sample, and primers to amplify the 18S rRNA region of A. fumigatus and an intronic region of mouse GAPDH (glyceraldehyde-3-phosphate dehydrogenase). Six-point standard curves were calculated using serial dilutions of gDNA from A. fumigatus strain and the uninfected mouse lung. Fungal and mouse DNA quantities were obtained from the threshold cycle (Ct) values from an appropriate standard curve.

CrzA:GFP = CrzA:GFP translocation to the nucleus; details: BRI 5 μM, 30 minutes
Description: Conidia were germinated in YG medium and grown for 13 hours and then exposed or not to BRI, CAS, and BRI+CAS for 30 minutes.

[4] = system: A. fumigatus cell membrane potential; experiment: Membrane potential determination, DiBAC4(3); type: cell-based, Aspergillus fumigatus; details: BRI 1 μM, 30 minutes
Description: Membrane potential determination: […] Biotechnol., 2021, 14, 262-276) with modifications. […] After, the germlings were washed with sterile PBS (140 mM NaCl, 2 mM KCl, 10 mM NaHPO4, 1.8 mM KH2PO4, pH 7.4). The fluorescence was analyzed with excitation wavelength of 450-490 nm, and emission wavelength of 525-550 nm on the Observer Z1 fluorescence microscope (Carl Zeiss) using the 100× with Differential interference contrast (DIC) images. Fluorescent images were captured with an AxioCam camera (Carl Zeiss, Inc.) and processed using the Axio Vision software (version 4.8).

chitin synthase genes = experiment: Chitin synthase mRNA accumulation (RT-qPCR); details: wild-type strain, 1 hour exposure; not in the mutant strains
Description: RNA-sequencing. cDNA synthesis and RTqPCR: All experiments were carried out in biological triplicates and conidia (10^7) were inoculated in liquid MM and A. fumigatus strains were grown for 16 hours at 37 ° C. and treated or not with different concentrations of BRI, CAS, or BRI+CAS for 1 hour. For total RNA isolation, mycelia were ground in liquid nitrogen and total RNA was extracted using TRIzol (Invitrogen), treated with RQ1 RNase-free DNase I (Promega), and purified using the RNAeasy kit (Qiagen) according to the manufacturer's instructions. RNA was quantified using a NanoDrop and Qubit fluorometer, and analyzed using an Agilent 2100 Bioanalyzer system to assess the integrity of the RNA.
For RT-qPCR, the RNA was reverse transcribed to cDNA using the ImProm-II reverse transcription system (Promega) according to manufacturer's instructions, and the synthesized cDNA was used for real-time analysis using the SYBR green PCR master mix kit (Applied Biosystems) in the ABI 7500 Fast real-time PCR system (Applied Biosystems, Foster City, CA, USA).

C. neoformans = experiment: BRI+CAS against yeasts, colony forming units
Description: Combination of Brilacidin and caspofungin against yeasts: For measuring the effect of the combination BRI+CAS against yeast fungal pathogens, two methods were used: (i) metabolic activity by XTT-assay and (ii) colony forming units (CFUs). For the first method, C. neoformans, C. albicans, and C. auris 10^4 cells were inoculated in RPMI-1640 supplemented with CAS 0 to 32 μg/ml (for C. neoformans) and 0 to 1 μg/ml (for Candida spp.) or the same concentrations of CAS combined with BRI 0.625 μM (for C. neoformans), BRI 20 μM (for C. albicans), and BRI 10 μM (for C. auris). […] XTT-assays were also used for C. albicans caspofungin resistant strains but with CAS 0.5 μg/ml combined with BRI 5, 10 or 20 μM. The same experimental design was used for the CFUs determination, except that after 48 hours the cells present in the wells were plated on YPD (yeast extract 10g, peptone 20g, dextrose 20g, agar 20 g, water 1000 mL) and the plates were incubated at 30° C. for 24-48 hours for determining the survival percentage.

[5] = system: A. fumigatus null mutants; experiment: Phosphatase and kinase null mutant screening; type: cell-based, Aspergillus fumigatus; details: for sensitivity of null mutant: BRI 20 μM; for sensitivity, BRI (20 μM): key: +: sensitivity similar to wild-type; −: more sensitive than the wild-type
Description: Phosphatase and kinase null mutant screening: An A. fumigatus phosphatase deletion library encompassing 25 null mutants for phosphatase catalytic subunits (Winkelströter et al., G3 (Bethesda), 2015, 5, 1525-39) was screened for sensitivity to the combination of CAS+BRI. […] In each well a total of 200 μL of liquid MM plus conidia from the different mutants (1×10^4 conidia/mL) was incubated in the presence of BRI (20 μM).

C. auris = experiment: MIC for yeasts, CLSI M27-A3; type: cell-based, Candida auris; details: read-out: MIC BRI

Question: For `N=C(N)NCCCCC(=O)Nc1cc(C(F)(F)F)cc(NC(=O)c2cc(C(=O)Nc3cc(C(F)(F)F)cc(NC(=O)CCCCNC(=N)N)c3OC3CCNC3)ncn2)c1OC1CCNC1` (stereo not drawn) [BRI, brilacidin], which MIC (A. fumigatus [1]; A. fumigatus CM7555 CAS^R, read-out: MIC BRI) is on record?
Answer: The MIC was greater than 80 µM.

Question: What about the MIC (A. fumigatus [1]; A. fumigatus DPL1033 CAS^R, read-out: MIC BRI) of the same compound?
Answer: The MIC was greater than 80 µM.

Question: And the MIC (A. fumigatus [1]; A. fumigatus MD24053 CAS^R, read-out: MIC BRI)?
Answer: Its MIC is greater than 80 µM.

Question: What about the MIC (A. fumigatus [1]; A. fumigatus VOR^R clinical isolate named in c0 of the row, read-out: MIC BRI) of the same compound?
Answer: Its MIC is 80 µM (≈ 75 µg/mL).

Question: And the MIC (A. fumigatus [1]; A. fumigatus WT (CEA17), read-out: MIC BRI)?
Answer: Its MIC is 80 µM (≈ 75 µg/mL).

Question: What about the MIC (A. fumigatus [1]; A. fumigatus WT, read-out: MIC BRI) of the same compound?
Answer: Its MIC is greater than 80 µM.

Question: What about the MIC (A. fumigatus [1]; A. fumigatus clinical isolate named in c0 of the row, read-out: MIC BRI) of the same compound?
Answer: Its MIC is greater than 80 µM.

Question: What about the MIC (A. fumigatus [1]; wild-type A. fumigatus, read-out: BRI MIC) of the same compound?
Answer: The MIC was greater than 80 µM.

Question: What about the inhibition at 20 µM (A. fumigatus biofilms) of the same compound?
Answer: The inhibition at 20 µM was roughly 10%.

Question: What about the inhibition at 40 µM (A. fumigatus biofilms) of the same compound?
Answer: The inhibition at 40 µM was roughly 60%.

Question: What about the “activity of BRI alone” value ([2]; 25 clinical isolates susceptible to CAS and 3 CAS-resistant clinical strains) of the same compound?
Answer: Its value is “no activity”.

Question: And the “growth, BRI alone” value ([2]; CM7555 CAS^R, BRI 20 μM)?
Answer: Its value is “+”.

Question: And the “growth, BRI alone” value ([2]; CM7555 CAS^R, BRI 40 μM)?
Answer: The value was “+”.

Question: And the “growth, BRI alone” value ([2]; DPL1033 CAS^R, BRI 20 μM)?
Answer: The value was “+”.

Question: What about the “growth, BRI alone” value ([2]; DPL1033 CAS^R, BRI 40 μM) of the same compound?
Answer: Its value is “+”.

Question: What about the “growth, BRI alone” value ([2]; MD24053 CAS^R, BRI 20 μM) of the same compound?
Answer: The value was “+”.

Question: What about the “growth, BRI alone” value ([2]; MD24053 CAS^R, BRI 40 μM) of the same compound?
Answer: Its value is “+”.

Question: What about the “growth inhibition, BRI alone” value ([2]; WT (CEA17), BRI 20 μM) of the same compound?
Answer: Its value is “+”.

Question: And the “growth, BRI alone” value ([2]; WT, BRI 20 μM)?
Answer: Its value is “+”.

Question: And the “growth, BRI alone” value ([2]; WT, BRI 40 μM)?
Answer: The value was “+”.

Question: And the MIC (C. albicans; Candida albicans SC5314, read-out: MIC BRI)?
Answer: The MIC was 80 µM (≈ 75 µg/mL).

Question: What about the MIC (C. albicans; Candida albicans, read-out: MIC BRI, Candida albicans DPL1006 CAS^R (FKS1 F641L)) of the same compound?
Answer: Its MIC is 20 µM (≈ 18.7 µg/mL).

Question: And the MIC (C. albicans; Candida albicans, read-out: MIC BRI, Candida albicans DPL1009 CAS^R (FKS1 S645Y))?
Answer: The MIC was 20 µM (≈ 18.7 µg/mL).

Question: And the MIC (C. albicans; Candida albicans, read-out: MIC BRI, Candida albicans DPL1011 CAS^R (FKS1 S645F + R1361R/H))?
Answer: The MIC was 40 µM.

Question: And the MIC (C. albicans; Candida albicans, C. albicans CAS-resistant isolates, read-out: BRI MICs)?
Answer: Its MIC is 20 to 80 µM (≈ 18.7 to 75 µg/mL).

Question: What about the MIC (C. albicans; Candida albicans, C. albicans, read-out: MIC BRI) of the same compound?
Answer: The MIC was 80 µM (≈ 75 µg/mL).

Question: And the “reduction of fungal burden in the lungs” value (A. fumigatus [3])?
Answer: Its value is “approximately 50%”.

Question: And the “germlings with CrzA:GFP in the nuclei” value (CrzA:GFP)?
Answer: The value was 0%.

Question: What about the “fluorescent germlings (membrane depolarization)” value [4] of the same compound?
Answer: The value was 5%.

Question: What about the “chitin synthase gene expression” value (chitin synthase genes) of the same compound?
Answer: Its value is “induce some of these genes”.

Question: And the type of activity (C. neoformans; BRI alone, C. neoformans)?
Answer: The type of activity was “fungicidal”.

Question: What about the Mechanism (C. neoformans; Cryptococcus neoformans H99, plating after 48 hours) of the same compound?
Answer: Its Mechanism is “Fungicidal”.

Question: What about the “sensitivity, BRI (20 μM)” value ([5]; Afs35 (wild-type; A1159)) of the same compound?
Answer: Its value is “+”.

Question: What about the “sensitivity, BRI (20 μM)” value ([5]; CEA17 (wild-type; A1160)) of the same compound?
Answer: The value was “+”.

Question: And the “sensitivity, BRI (20 μM)” value ([5]; ΔcalA (Afu5g09360))?
Answer: The value was “−”.

Question: What about the “sensitivity of null mutant” value ([5]; ΔcalA) of the same compound?
Answer: The value was “more sensitive”.

Question: And the “sensitivity, BRI (20 μM)” value ([5]; ΔcdcA (Afu3g12250))?
Answer: Its value is “+”.

Question: And the “sensitivity, BRI (20 μM)” value ([5]; ΔdspA (Afu1g13040))?
Answer: Its value is “+”.

Question: What about the “sensitivity, BRI (20 μM)” value ([5]; ΔdspB (Afu1g03540)) of the same compound?
Answer: The value was “+”.

Question: And the “sensitivity, BRI (20 μM)” value ([5]; ΔdspD (Afu2g02760))?
Answer: The value was “+”.

Question: And the “sensitivity, BRI (20 μM)” value ([5]; ΔltpA (Afu2g01880))?
Answer: The value was “+”.

Question: And the “sensitivity, BRI (20 μM)” value ([5]; ΔmpkA)?
Answer: Its value is “−”.

Question: And the “sensitivity of null mutant” value ([5]; ΔmpkA)?
Answer: The value was “more sensitive”.

Question: And the “sensitivity, BRI (20 μM)” value ([5]; ΔmpkB)?
Answer: The value was “+”.

Question: And the “sensitivity, BRI (20 μM)” value ([5]; ΔmpkC)?
Answer: The value was “+”.

Question: And the “sensitivity, BRI (20 μM)” value ([5]; ΔnemA (Afu1g09460))?
Answer: Its value is “+”.

Question: What about the “sensitivity, BRI (20 μM)” value ([5]; ΔpphA (Afu5g12010)) of the same compound?
Answer: The value was “+”.

Question: What about the “sensitivity, BRI (20 μM)” value ([5]; ΔppmA (Afu8g04580)) of the same compound?
Answer: The value was “+”.

Question: What about the “sensitivity, BRI (20 μM)” value ([5]; ΔppsA (Afu5g11690)) of the same compound?
Answer: The value was “+”.

Question: What about the “sensitivity, BRI (20 μM)” value ([5]; ΔpptA (Afu5g06700)) of the same compound?
Answer: The value was “+”.

Question: And the “sensitivity, BRI (20 μM)” value ([5]; ΔppzA (Afu2g03950))?
Answer: The value was “+”.

Question: What about the “sensitivity, BRI (20 μM)” value ([5]; ΔpsrA (Afu1g04790)) of the same compound?
Answer: The value was “+”.

Question: And the “sensitivity, BRI (20 μM)” value ([5]; ΔptcA (Afu1g15800))?
Answer: Its value is “+”.

Question: What about the “sensitivity, BRI (20 μM)” value ([5]; ΔptcB (Afu1g09280)) of the same compound?
Answer: The value was “+”.

Question: And the “sensitivity, BRI (20 μM)” value ([5]; ΔptcD (Afu5g13740))?
Answer: Its value is “+”.

Question: What about the “sensitivity, BRI (20 μM)” value ([5]; ΔptcE (Afu2g03890)) of the same compound?
Answer: Its value is “+”.

Question: What about the “sensitivity, BRI (20 μM)” value ([5]; ΔptcF (Afu1g06860)) of the same compound?
Answer: The value was “+”.

Question: And the “sensitivity, BRI (20 μM)” value ([5]; ΔptcG (Afu5g13340))?
Answer: Its value is “+”.

Question: And the “sensitivity, BRI (20 μM)” value ([5]; ΔptcH (Afu4g00720))?
Answer: Its value is “+”.

Question: And the “sensitivity, BRI (20 μM)” value ([5]; ΔptpB (Afu3g10970))?
Answer: The value was “+”.

Question: And the “sensitivity, BRI (20 μM)” value ([5]; ΔptyA (Afu6g06650))?
Answer: Its value is “+”.

Question: And the “sensitivity, BRI (20 μM)” value ([5]; ΔpypA (Afu4g04710))?
Answer: Its value is “+”.

Question: What about the “sensitivity, BRI (20 μM)” value ([5]; ΔsakA) of the same compound?
Answer: The value was “+”.

Question: What about the “sensitivity, BRI (20 μM)” value ([5]; ΔsakA, ΔmpkC) of the same compound?
Answer: Its value is “+”.

Question: And the “sensitivity, BRI (20 μM)” value ([5]; ΔsitA (Afu6g11470))?
Answer: Its value is “+”.

Question: And the “sensitivity, BRI (20 μM)” value ([5]; ΔyphA (Afu4g07000))?
Answer: Its value is “+”.

Question: What about the MIC (C. auris; Candida auris 467/2015) of the same compound?
Answer: The MIC was 80 µM (≈ 75 µg/mL).

Question: And the MIC (C. auris; Candida auris 468/2015)?
Answer: Its MIC is 80 µM (≈ 75 µg/mL).

Question: And the MIC (C. auris; Candida auris 469/2015)?
Answer: The MIC was 80 µM (≈ 75 µg/mL).

Question: And the MIC (C. auris; Candida auris 470/2015)?
Answer: The MIC was 80 µM (≈ 75 µg/mL).

Question: And the MIC (C. auris; Candida auris 471/2015)?
Answer: Its MIC is 80 µM (≈ 75 µg/mL).

Question: And the MIC (C. auris; Candidozyma auris, C. auris)?
Answer: The MIC was 80 µM (≈ 75 µg/mL).
